Activity calls are given as the source filed them. The rule behind the calls is not given here.
How the values were obtained:
Assay type in all cases: protein assay
[1] = target: T1, Alpha-1,2-mannosidase (BT_2199) (Bacteroides thetaiotaomicron) (UniProt Q8A5N9); test: Activity of Bacteroides thetaiotaomicron GH92 alpha-mannosidase GH92 alpha-mannosidase 2199 assessed as mannose release at 1 mM after 16 hrs by HPLC relative to untreated control after 16 hrs by HPLC
T1 sequence (whole entry): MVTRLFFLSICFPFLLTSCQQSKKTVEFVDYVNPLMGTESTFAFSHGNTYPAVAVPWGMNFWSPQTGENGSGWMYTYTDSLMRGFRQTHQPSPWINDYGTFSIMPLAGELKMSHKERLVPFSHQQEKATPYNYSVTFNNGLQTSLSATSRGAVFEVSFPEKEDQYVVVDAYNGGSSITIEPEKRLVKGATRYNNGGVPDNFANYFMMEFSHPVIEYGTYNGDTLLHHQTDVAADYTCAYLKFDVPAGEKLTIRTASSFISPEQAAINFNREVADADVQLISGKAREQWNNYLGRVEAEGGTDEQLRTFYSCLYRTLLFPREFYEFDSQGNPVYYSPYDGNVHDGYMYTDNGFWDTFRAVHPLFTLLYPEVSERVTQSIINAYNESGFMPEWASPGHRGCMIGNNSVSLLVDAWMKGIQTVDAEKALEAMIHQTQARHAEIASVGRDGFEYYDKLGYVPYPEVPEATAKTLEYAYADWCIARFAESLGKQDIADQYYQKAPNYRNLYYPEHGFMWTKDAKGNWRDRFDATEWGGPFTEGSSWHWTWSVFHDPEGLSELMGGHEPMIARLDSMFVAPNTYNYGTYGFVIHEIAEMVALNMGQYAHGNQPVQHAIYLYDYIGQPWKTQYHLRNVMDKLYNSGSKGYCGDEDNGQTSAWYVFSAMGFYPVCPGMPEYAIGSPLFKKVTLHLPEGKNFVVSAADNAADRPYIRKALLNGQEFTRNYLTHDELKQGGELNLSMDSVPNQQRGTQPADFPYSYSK

[2] = target: T2, Alpha-1,2-mannosidase (BT_2629) (Bacteroides thetaiotaomicron) (UniProt Q8A4H0); test: Activity of Bacteroides thetaiotaomicron GH92 alpha-mannosidase GH92 alpha-mannosidase 2629 assessed as mannose release at 1 mM after 16 hrs by HPLC relative to untreated control after 16 hrs by HPLC
T2 sequence (whole entry): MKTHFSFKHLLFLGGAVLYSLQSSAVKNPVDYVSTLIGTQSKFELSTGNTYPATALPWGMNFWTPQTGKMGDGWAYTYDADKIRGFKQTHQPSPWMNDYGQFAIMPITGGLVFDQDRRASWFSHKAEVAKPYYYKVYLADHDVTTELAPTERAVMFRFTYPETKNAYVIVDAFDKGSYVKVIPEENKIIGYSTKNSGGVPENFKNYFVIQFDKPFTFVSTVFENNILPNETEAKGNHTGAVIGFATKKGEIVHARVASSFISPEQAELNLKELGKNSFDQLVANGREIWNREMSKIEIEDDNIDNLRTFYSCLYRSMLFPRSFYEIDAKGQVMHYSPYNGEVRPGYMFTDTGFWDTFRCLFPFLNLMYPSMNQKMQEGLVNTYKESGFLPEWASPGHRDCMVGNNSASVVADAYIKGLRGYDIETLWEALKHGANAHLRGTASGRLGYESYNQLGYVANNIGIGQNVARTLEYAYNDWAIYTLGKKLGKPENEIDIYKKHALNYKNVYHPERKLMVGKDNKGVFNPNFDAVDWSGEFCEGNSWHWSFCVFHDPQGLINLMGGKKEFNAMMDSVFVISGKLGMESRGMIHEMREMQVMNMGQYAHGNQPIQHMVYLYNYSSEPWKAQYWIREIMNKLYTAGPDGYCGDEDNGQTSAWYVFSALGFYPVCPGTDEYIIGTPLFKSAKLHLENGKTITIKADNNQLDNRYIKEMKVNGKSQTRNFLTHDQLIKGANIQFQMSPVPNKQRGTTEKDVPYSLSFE

[3] = target: T3, Alpha-1,2-mannosidase (BT_2948) (Bacteroides thetaiotaomicron) (UniProt Q8A3K6); test: Activity of Bacteroides thetaiotaomicron GH92 alpha-mannosidase GH92 alpha-mannosidase 2948 assessed as mannose release at 1 mM after 16 hrs by HPLC relative to untreated control after 16 hrs by HPLC
T3 sequence (whole entry): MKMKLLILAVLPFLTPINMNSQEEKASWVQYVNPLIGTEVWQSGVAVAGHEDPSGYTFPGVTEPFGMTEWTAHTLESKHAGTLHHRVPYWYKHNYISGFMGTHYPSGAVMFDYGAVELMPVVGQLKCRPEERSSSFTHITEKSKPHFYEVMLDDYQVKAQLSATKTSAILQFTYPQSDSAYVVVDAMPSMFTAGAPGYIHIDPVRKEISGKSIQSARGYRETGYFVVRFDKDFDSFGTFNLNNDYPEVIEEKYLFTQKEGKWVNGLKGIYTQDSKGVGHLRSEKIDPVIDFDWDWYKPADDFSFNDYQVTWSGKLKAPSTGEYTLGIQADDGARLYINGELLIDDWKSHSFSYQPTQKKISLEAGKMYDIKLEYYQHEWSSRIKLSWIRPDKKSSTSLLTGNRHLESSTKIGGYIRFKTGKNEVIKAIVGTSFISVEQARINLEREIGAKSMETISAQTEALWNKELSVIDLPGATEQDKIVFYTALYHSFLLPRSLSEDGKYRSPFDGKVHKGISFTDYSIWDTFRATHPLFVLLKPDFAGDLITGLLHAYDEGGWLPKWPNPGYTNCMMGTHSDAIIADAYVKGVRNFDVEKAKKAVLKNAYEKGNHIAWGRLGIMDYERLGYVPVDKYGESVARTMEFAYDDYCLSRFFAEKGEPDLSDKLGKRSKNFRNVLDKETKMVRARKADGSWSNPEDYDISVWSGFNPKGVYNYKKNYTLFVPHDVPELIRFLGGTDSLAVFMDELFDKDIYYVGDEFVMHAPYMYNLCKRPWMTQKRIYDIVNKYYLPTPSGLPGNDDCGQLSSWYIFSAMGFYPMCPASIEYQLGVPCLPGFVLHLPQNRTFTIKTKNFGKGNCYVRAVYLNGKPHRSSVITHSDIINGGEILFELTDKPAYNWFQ

`OC[C@H]1O[C@H](O[C@H]2[C@@H](O)[C@H](O)[C@@H](CO)O[C@@H]2O)[C@@H](O)[C@@H](O)[C@@H]1O` was tested, and the Activity [1] was 100%, the Activity [2] was “inactive” and the Activity [3] was “inactive”.
For `OC[C@H]1O[C@H](OC[C@H]2O[C@H](O)[C@@H](O)[C@@H](O)[C@@H]2O)[C@@H](O)[C@@H](O)[C@@H]1O`, the Activity [1] was “inactive”, the Activity [2] was “inactive” and the Activity [3] was “inactive”.
In the case of `OC[C@H]1O[C@H](O[C@@H]2[C@H](O)[C@@H](O)O[C@H](CO)[C@H]2O)[C@@H](O)[C@@H](O)[C@@H]1O`, the Activity [1] is reported as “inactive”, the Activity [2] is reported as “inactive” and the Activity [3] is reported as “inactive”.
With `OC[C@H]1O[C@H](O[C@H]2[C@H](O)[C@H](O)[C@@H](O)O[C@@H]2CO)[C@@H](O)[C@@H](O)[C@@H]1O` the Activity [1] was 0.12%, the Activity [2] was “inactive” and the Activity [3] was “inactive”.
